From PubChem BioAssay (NCI)
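In this assay, cells in 96-well plates receive the compound at five concentrations for 48 hours. Endpoints are linearly interpolated between the surrounding concentrations. At the GI50, growth is halved. The concentration for full growth arrest is given as TGI.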

How the values were obtained:
Assay in all cases: NCI anticancer screen, dose series, 48 h
[1] = tested on: TK-10 renal
[2] = tested on: SF-268 CNS
[3] = tested on: NCI-H23 lung
[4] = tested on: OVCAR-3 ovarian
[5] = tested on: SW-620 colon
[6] = tested on: A549 NSCLC
[7] = tested on: SK-MEL-28 melanoma
[8] = tested on: HL-60(TB) leukemia

SMILES | TGI [1] [µM] | TGI [2] [µM] | TGI [3] [µM] | TGI [4] [µM] | TGI [5] [µM] | TGI [6] [µM] | TGI [7] [µM] | GI50 [1] [µM] | GI50 [2] [µM] | GI50 [8] [µM] | TGI [8] [µM] | GI50 [3] [µM] | GI50 [4] [µM] | GI50 [5] [µM] | GI50 [6] [µM] | GI50 [7] [µM]
C(=NCCN1CCOCC1)=NC1CCCCC1 | > 100 | > 100 | > 100 | > 100 | > 100 | > 100 | > 100 | – | – | – | – | – | – | – | – | –
O=C(O)COc1ccc2c(=O)c3sc4c(=O)c5ccccc5c(=O)c4c3c(=O)c2c1 | 46.5 | 48.9 | 8.57 | 33.9 | 28.6 | 26.5 | 28.6 | 23 | 14.8 | 24.1 | 61.3 | 2.71 | 13.5 | 11.4 | 11.2 | 8.19
Cc1cc(Nc2ccc(NC(=O)c3ccc(Nc4ccnc5ccccc45)cc3)cc2)nc(N)n1 | > 100 | – | – | 4.26 | > 100 | > 100 | – | 19.8 | – | 7.31 | > 100 | – | 1.43 | 1.37 | 14.6 | –
COc1cccc(C2CC(C)(O)Oc3cc4c(cc32)OCO4)c1O (stereo unspecified) | > 100 | > 91.2 | 92.9 | 42.2 | > 100 | > 100 | > 100 | – | – | – | > 59 | – | – | – | – | –
Cc1ccc(S(=O)(=O)Nc2ccccc2C=O)cc1 | 52.4 | – | 66.8 | 60.1 | 47.5 | > 100 | 64.7 | – | – | – | 27.6 | – | – | – | – | –
Cc1cc(C)c2c(n1)sc1c(Nc3ccc(Cl)cc3)ncnc12 | > 100 | > 100 | > 100 | > 100 | > 100 | > 100 | > 100 | > 100 | < 0.01 | < 0.01 | – | < 0.01 | 2.39 | < 0.01 | < 0.01 | 4.4
Cc1ccc(SC2c3ccc(C)cc3Oc3nc(N)c(C#N)c(N)c32)cc1 (stereo unspecified) | 3.39 | 4.06 | – | 3.22 | 3.84 | 17.3 | 3.35 | 1.95 | 1.83 | 2.09 | 5.49 | – | 1.77 | 1.84 | 4.9 | 1.83
CN1CCN(C2CCN(C(=O)Nc3cc(Oc4ccc(NC(=O)C5(C(=O)Nc6ccc(F)cc6)CC5)c(F)c4)ccn3)CC2)CC1 | > 10 | > 2.96 | > 3.42 | > 3.02 | > 10 | > 10 | 2.28 | 0.365 | – | 1.39 | > 3.33 | 1.23 | – | 1.43 | 1.38 | 0.771
CC/C=C\C[C@H](O)C/C=C1/C(=O)C(Cl)=C[C@@H]1C/C=C\CCCC(=O)OC | 3.09 | 2.34 | 1.97 | 1.88 | 1.29 | 7.52 | 1.31 | 0.946 | 0.505 | 0.453 | 1.91 | 0.523 | 0.525 | 0.318 | 2.64 | 0.432
CC1(C)N=C(N)N=C(N)N1c1ccc(CCCCc2ccc(Cl)cc2S(=O)(=O)F)c(Cl)c1 | 25.7 | 17.7 | 18.5 | 12.2 | 14.1 | 13.9 | 8.46 | 5.82 | 0.493 | 0.107 | 3.26 | 0.537 | 0.762 | 0.234 | 0.388 | 0.965
O=C(Nc1ccc(Br)cc1F)c1cc(F)ccc1O | 18 | 10.1 | 3.15 | 6.64 | 15.4 | > 100 | 1.84 | 3.26 | 0.558 | 0.485 | 2.89 | 0.386 | 0.411 | 0.805 | 1.69 | 0.377
O=CCC1CCCCC1 | – | > 100 | > 100 | > 100 | > 100 | > 100 | > 100 | – | – | – | – | – | – | – | – | –
NC(=S)N/N=C/C(=O)O | – | > 100 | > 100 | > 100 | > 100 | > 100 | > 100 | – | > 100 | > 100 | > 100 | > 100 | 31.7 | > 100 | 96.8 | > 100
NC(N)=N/N=C/c1c(-c2ccsc2)nc2sccn12 | 22.7 | 29.4 | 26.4 | 21.2 | 43.1 | 43.7 | 27.6 | 10.8 | 15.3 | 16.3 | 56.4 | 13.5 | 8.8 | 18.3 | 21.7 | 14.2
Oc1ccc(Nc2ncnc3c2sc2ncccc23)cc1 | > 100 | > 100 | 9.53 | > 100 | > 100 | > 100 | > 100 | > 100 | 0.0407 | 0.0288 | > 56.5 | < 0.01 | 0.397 | 0.0824 | 0.0164 | 3.75
COc1cccc(F)c1C(=O)c1cnc(NC2CCN(S(C)(=O)=O)CC2)nc1N | > 25 | > 21.4 | 21.7 | 19 | > 18.1 | > 25 | > 20.8 | 4.03 | 5.96 | 1.44 | 13.3 | 3.15 | 4.6 | 0.781 | 3.15 | 3.43
N#Cc1c(NC(=O)NCc2ccccc2)sc2c1CCCCC2 | > 100 | > 100 | > 59.8 | 1.61 | > 100 | > 100 | > 100 | 5.92 | 1.52 | 0.286 | 0.843 | 0.695 | 0.346 | 0.406 | 0.626 | 2.77
Cn1cc(C2=C(c3ccc(N)cc3)C(=O)NC2=O)c2ccccc21 | > 25 | > 25 | > 25 | > 25 | > 25 | > 25 | > 25 | > 25 | 20.1 | 8.58 | > 25 | 21.6 | 14.3 | 13.7 | 18.4 | > 25

SMILES | TGI [1] [µM] | TGI [2] [µM] | TGI [3] [µM] | TGI [4] [µM] | TGI [5] [µM] | TGI [6] [µM] | TGI [7] [µM] | GI50 [1] [µM] | GI50 [2] [µM] | GI50 [8] [µM] | TGI [8] [µM] | GI50 [3] [µM] | GI50 [4] [µM] | GI50 [5] [µM] | GI50 [6] [µM] | GI50 [7] [µM]
COc1ccc(OC)c2c1[nH]c(=O)c1c3ccccc3cn21 | 3.76 | 3.04 | 3.04 | 3.31 | 2.11 | 2.37 | 3.38 | 2.01 | 1.42 | 1.7 | 4.24 | 1.49 | 1.64 | 0.59 | 1.02 | 1.92
Nc1ccc([N+](=O)[O-])cc1N=C/C=C/c1ccccc1 | > 100 | 40.6 | > 100 | 26.8 | > 100 | > 100 | > 100 | 33.3 | 5.91 | 2.64 | > 100 | 18.4 | 4.95 | 6.12 | 21.9 | 29.7
CO/N=C(/C)c1cccc(Nc2cc(-n3nnc4ccccc43)nc3ccccc23)c1 | > 100 | > 100 | > 100 | – | > 100 | > 100 | > 100 | 26 | 30.5 | – | – | 33.6 | – | 34.1 | 38.7 | > 100
CSC1=Nc2c(c(C)c(C)n2COC(CO)CO)C2=NC(=O)C(C)N12 (stereo unspecified) | > 100 | > 100 | > 100 | > 100 | > 100 | > 100 | > 100 | > 100 | > 100 | – | > 100 | > 100 | > 100 | > 100 | > 100 | > 100
COc1cc(C(=O)N2CCN(C=O)C2=S)cc(OC)c1OC | 36.7 | 43.7 | 62 | 33.6 | 70 | 88.8 | > 100 | 17.1 | 21.4 | 23.4 | 44.3 | 25.9 | 16.9 | 26.8 | 33.2 | 29.5
O=C(Nc1ccc2ncccc2c1)Nc1ccc2ncccc2c1 | > 100 | > 100 | > 100 | > 100 | > 100 | > 100 | > 100 | – | – | – | – | – | – | – | – | –
C/C=C(\C)C(=O)O[C@H]1C=CC(=O)O[C@H]1CCC(=O)[C@H](C)O | 34 | 26.1 | 43.9 | 22.3 | 16.2 | 46.7 | 24.6 | 17.7 | 11.3 | 7.34 | 24.8 | 20.5 | 9.58 | 4.9 | 20.9 | 9.9
CCOC(=O)c1ccc(NC(=O)Oc2ccc3c(C)cc(=O)oc3c2)cc1 | > 100 | > 100 | > 100 | > 100 | > 100 | > 100 | > 100 | – | – | – | 62.2 | – | – | – | – | –
C#CCOc1cccc(-c2ncc3cc(NC(=O)CCl)ccc3n2)c1 | 4.85 | 5.25 | 4.71 | 3.79 | 3.25 | 4.43 | 3.66 | 2.6 | 2.03 | 2.28 | 8.02 | 1.87 | 1.93 | 1.56 | 2.11 | 1.98
CC[As](CC)SC[C@H](C)C(=O)N1CCC[C@H]1C(=O)O | 0.396 | 1 | 0.616 | 0.0347 | 0.11 | – | 0.212 | 0.113 | 0.249 | 0.023 | 0.0757 | 0.222 | 0.0135 | 0.0344 | – | 0.055
C=C1C(=O)OC2CC(C)C(C(CC(C)=O)OC(C)=O)=CCC12 (stereo unspecified) | 31.1 | 74.5 | 34.3 | 20.3 | 10.6 | > 76.2 | 24.1 | – | – | – | > 29.3 | – | – | – | – | –
CCN(CC)CCC(CNc1ccnc2cc(Cl)ccc12)c1ccc(Cl)cc1 (stereo unspecified) | 1.63 | 4.61 | 7.1 | 5.98 | 3.39 | 3.96 | 2.06 | 0.436 | 1.97 | 1.34 | 3.94 | 1.87 | 1.96 | 1.48 | 1.64 | 0.763
CCOC(=O)C1=CN(C)C=C(C(=O)OCC)C1c1cc(Br)c(OCC)c(OC)c1 | > 100 | > 100 | > 100 | > 100 | > 100 | > 100 | > 100 | > 100 | > 100 | > 100 | > 100 | > 100 | 48 | 67.2 | 81.7 | > 100
CC(=O)OC1COC(Oc2c(C)c3c4c(c2O)[C@@H](C)CC[C@@H]4[C@@H](C)C[C@H]3C=C(C)C)C(O)C1OC(C)=O (stereo partly specified) | 46.3 | > 100 | 18.6 | 23.3 | > 100 | 32.8 | 56.2 | 24.1 | 27.6 | – | – | 7.49 | 10.6 | 36.4 | 16 | 25.4
CC1=C(C(=O)Nc2ccc(F)c(Cl)c2)C(c2ccccc2O)NC(=S)N1 (stereo unspecified) | > 50 | > 50 | – | 42.6 | > 50 | > 50 | – | > 50 | 9.43 | > 50 | > 50 | – | 12.6 | > 50 | 19.6 | –
COC(=O)C1c2cc3c(cc2C(OC2OC(C)C(OC)C(C)(OC)C2OC)CC1(C)O)C(=O)c1c(O)cc2c(c1C3=O)OC1OC2(C)C(O)C([N+](C)(C)[O-])C1O (stereo unspecified) | > 100 | > 21.4 | 0.718 | > 32.3 | > 23.8 | > 75.8 | – | – | – | – | – | – | – | – | – | –
CNCc1ccccc1-c1csc([C@@H](C)Nc2nc(C)nc3cc(OC)c(OC)cc23)c1 | 2.52 | 12.4 | 15.5 | 8.04 | 3.44 | 5.73 | 3.53 | 1.09 | 2.66 | – | – | 2.83 | 2.42 | 1.49 | 1.94 | 1.95
